Test results as given in patent US5506213A, “Adminstration of 2'-halo-2'-deoxy adenosine to treat inflammatory bowel disease” (priority 1994, dated 1996).

Assays:
[1] = system: DNA strand breaks in human monocytes; assay: DNA damage in monocytes, fluorescent assay for DNA unwinding in alkaline solution; type: cell-based; settings: for additional residual double-stranded DNA (repair) after CdA removal: over the next four hours
Protocol: FIG. 4 is a graph of the dose- and time-dependence for CdA in inducing DNA strand breaks in monocytes in vitro.
Monocytes were plated as discussed previously, and were then contacted with compositions containing various concentrations of CdA. The amount of DNA damage in monocytes exposed to CdA was determined by the fluorescent assay for DNA unwinding in alkaline solution described by Birnboim and Jevcak (1981) Cancer Res., 41:1889-1892, modified to accommodate lower cell numbers (Thierry et al. (1985) Radiation Res., 102:347-358).
The unwinding rate of DNA in alkaline solution at 15 degrees C. is proportional to the number of DNA strand breaks or alkali-labile sites. The ethidium bromide fluorescence of residual duplex DNA in samples exposed to pH 12.8 for one hour was compared to the fluorescence of a DNA aliquot that was not exposed to alkali. The percent residual double-stranded DNA at 1 hour was taken as a measure of the DNA damage in the sample. The results are illustrated in FIG. 4.
The repair of monocyte DNA damage caused by CdA was compared to the damage caused by gamma irradiation. Monocytes were pre-exposed to 0.1 or 1.0 μM CdA for four hours. At the end of this time, approximately 60 percent residual double-stranded DNA was present in the cells. The CdA was removed, and the amount of residual double-stranded DNA was calculated over the next four hours. Any increase in doublestranded DNA represents ongoing repair mechanisms.

DHL9, wild type = assay: Direct comparative cytotoxicity assay (Table II), DHL9 wild type; type: cell-based, human; settings: Homo sapiens, 120 h, read-out: ID50: concentration that produced 50 percent reduction in all numbers after five days
Excerpt: (§1) The two compounds, CdA and CAFdA, were also compared for in vitro activity against another group of human cell lines in a direct comparative assay.
(§2) ^1 Concentration that produced 50 percent reduction in all numbers
^2 CEM cells are T lymphoblasts; DHL9 cells are lymphoblasts.

[2] = system: RNA synthesis in monocytes; assay: Monocyte RNA synthesis, 3H-uridine incorporation; type: cell-based, human; settings: 1 nM CdA; detectable after the first hour of culture
Protocol: FIG. 5 is a graph showing the biochemical effects induced in human monocytes in vitro by exposure to […] CdA over a period of 16 hours. The effects of CdA exposure upon monocyte viability (open squares), NAD content (closed squares), RNA synthesis (open circles) and DNA strand breaks (ds-DNA; closed circles) are illustrated.
Monocyte RNA synthesis following CdA exposure was studied by measuring the incorporation of ^3 H-uridine. Monocytes were exposed to ^3 H-uridine (20 μCi/10^6 cells) during the final 1 hour of CdA (1 nM) exposure. Radioactivity measured was contained in trichloroacetic acid precipitates collected onto cellulose acetate filters and measured by liquid scintillation counting.

[3] = system: Peripheral blood lymphocytes; assay: Direct comparative cytotoxicity assay (Table II), peripheral blood lymphocytes; type: cell-based, human; settings: Homo sapiens, Lymphocyte, 120 h, read-out: ID50: concentration that produced 50 percent reduction in all numbers after five days
Excerpt: as §1, §2

interleukin-1β (IL-1β) = assay: Plasma IL-1beta in a rheumatoid arthritis patient, ELISA; type: in vivo, human; settings: each last infusion day compared to pretreatment values; one patient; preliminary
Excerpt: Preliminary studies have also measured the concentration of interleukin-1β (IL-1β) in cryopreserved plasma samples from one of the rheumatoid arthritis patients. IL-1β is a lymphokine released by antigen-stimulated macrophages that promotes the formation of interleukin-2 in antigen-activated cytotoxic T cells. IL-2 promotes mitosis in activated cytotoxic T cells.
This patient received CdA, as before, in four treatments over a time period of almost 100 days. Each treatment was by 5-day continuous infusion.
IL-1β concentrations were measured using a commercially available ELISA kit (Cistron).

monocytes = assay: Direct comparative cytotoxicity assay (Table II), monocytes; type: cell-based, human; settings: Homo sapiens, Monocyte, 120 h, read-out: ID50: concentration that produced 50 percent reduction in all numbers after five days
Excerpt: as §1, §2

[4] = system: 2 week old cultured monocytes (differentiated macrophages); assay: In vitro cytotoxicity toward 2 week old cultured monocytes; type: cell-based, human

## Nc1nc(Cl)nc2c1ncn2[C@H]1C[C@H](O)[C@@H](CO)O1 [CdA, 2-chloro-9,1'-beta-D-2'-deoxyribosyladenine]
[1]; 10 nM CdA
  time to appearance of DNA breaks: ≤ 2 h
[1]; 0.1 μM CdA
  additional residual double-stranded DNA (repair) after CdA removal: 10%
[1]; 1.0 μM CdA
  additional residual double-stranded DNA (repair) after CdA removal: no increase
[1]; pre-exposed to 0.1 or 1.0 μM CdA for four hours
  residual double-stranded DNA: approximately 60%
DHL9, wild type
  IC50: 0.08 µM
[2]
  RNA synthesis: progressive reduction in RNA synthesis
[3]
  IC50: 0.015 µM
interleukin-1β (IL-1β)
  plasma IL-1β level: significantly lower
monocytes
  IC50: 0.022 µM
[4]; Homo sapiens, Monocyte, 336 h, read-out: CdA concentration at which 50 percent of 2 week old cultured monocytes were killed
  IC50: > 0.25 µM
[4]; human, monocytes
  increase in resistance of 2 week old cultured versus freshly isolated monocytes: over 12.5 times
